Results published in PubChem BioAssay AID330 (DTP/NCI, 2004).
Inconclusive results and toxic doses are left out.

Test system: P388 leukemia ip, CD2F1 mice, survival T/C
Assay: NCI In Vivo Anticancer Drug Screen. Data for tumor model P388 Leukemia (intraperitoneal) in CD2F1 (CDF1) mice
Conditions: endpoint: median survival time, higher = longer survival
In short: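 Mice carrying the transplanted tumor received test compound or vehicle. Survival was recorded in each group, and the value is the treated-group measurement divided by that of the vehicle-treated control group.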

[1] = dose: 50.0 mg/kg/injection, schedule: Q01DX005 (ip), vehicle: saline with Tween-80
[2] = dose: 100.0 mg/kg/injection, schedule: Q01DX005 (ip), vehicle: saline with Tween-80
[3] = dose: 200.0 mg/kg/injection, schedule: Q01DX005 (ip), vehicle: saline with Tween-80
[4] = dose: 100.0 mg/kg/injection, schedule: Q01DX009 (ip), vehicle: saline
[5] = dose: 50.0 mg/kg/injection, schedule: Q01DX009 (ip), vehicle: saline with Tween-80
[6] = dose: 100.0 mg/kg/injection, schedule: Q01DX009 (ip), vehicle: saline with Tween-80
[7] = dose: 200.0 mg/kg/injection, schedule: Q01DX009 (ip), vehicle: saline with Tween-80
[8] = dose: 60.0 mg/kg/injection, schedule: Q01DX005 (ip), vehicle: saline
[9] = dose: 120.0 mg/kg/injection, schedule: Q01DX005 (ip), vehicle: saline
[10] = dose: 240.0 mg/kg/injection, schedule: Q01DX005 (ip), vehicle: saline
[11] = dose: 50.0 mg/kg/injection, schedule: Q01DX009 (ip), vehicle: Klucel (hydroxypropylcellulose) (HPC)
[12] = dose: 100.0 mg/kg/injection, schedule: Q01DX009 (ip), vehicle: Klucel (hydroxypropylcellulose) (HPC)
[13] = dose: 200.0 mg/kg/injection, schedule: Q01DX009 (ip), vehicle: Klucel (hydroxypropylcellulose) (HPC)
[14] = dose: 25.0 mg/kg/injection, schedule: Q01DX009 (ip), vehicle: Klucel (hydroxypropylcellulose) (HPC)

For CCN(CC)CCN(C(=O)OCCOC(=O)N(CCN(CC)CC)c1cccc2sc3ccccc3c(=O)c12)c1cccc2sc3ccccc3c(=O)c12, the T/C [1] was 99 % of control, the T/C [2] was 106 % of control and the T/C [3] was 105 % of control.

With COc1cc2c(c3c1C(=O)c1c(cc4c(c1O)C(OC)CC(C)(O)C4)C3=O)OC1OC2(C)C(O)C(N(C)C)C1O (stereo not given) the T/C (dose: 1.25 mg/kg/injection, schedule: Q01DX009 (ip), vehicle: other) was 117 % of control, the T/C (dose: 2.5 mg/kg/injection, schedule: Q01DX009 (ip), vehicle: other) was 98 % of control and the T/C (dose: 5.0 mg/kg/injection, schedule: Q01DX009 (ip), vehicle: other) was 102 % of control. For the same compound, the T/C (dose: 20.0 mg/kg/injection, schedule: Q01DX009 (ip), vehicle: other) was 124 % of control, the T/C (dose: 40.0 mg/kg/injection, schedule: Q01DX009 (ip), vehicle: other) was 123 % of control and the T/C (dose: 200.0 mg/kg/injection, schedule: Q01DX009 (ip), vehicle: other) was 179 % of control.

For CCCC(=O)C(CC)C(O)(C(F)(F)F)C(F)(F)F (stereo not given), the T/C (dose: 50.0 mg/kg/injection, schedule: Q01DX009 (ip), vehicle: saline) was 104 % of control, the T/C [4] was 104 % of control and the T/C (dose: 200.0 mg/kg/injection, schedule: Q01DX009 (ip), vehicle: saline) was 109 % of control.

With O=c1cc([N+](=O)[O-])c2c([nH]1)CCC2 the T/C [1] was 97 % of control, the T/C [2] was 94 % of control and the T/C [3] was 90 % of control.

With CC1=NN(C(=O)c2ccncc2)C(=O)C1N=Nc1ccc(S(=O)(=O)Nc2ccccn2)cc1 (stereo not given) the T/C [5] was 92 % of control, the T/C [6] was 90 % of control and the T/C [7] was 103 % of control.

In the case of CC(C)=CCC(OC1OC(CO)C(O)C(O)C1O)C1=CC(=O)c2c(O)ccc(O)c2C1=O (stereo not given), the T/C (dose: 12.5 mg/kg/injection, schedule: Q04DX002 (ip), vehicle: saline with Tween-80) is reported as 119 % of control and the T/C (dose: 25.0 mg/kg/injection, schedule: Q04DX002 (ip), vehicle: saline with Tween-80) is reported as 115 % of control.

In the case of Cc1cc2c(c3ncccc13)OCN(Cc1ccc(Cl)cc1)C2, the T/C [5] is reported as 94 % of control, the T/C [6] is reported as 95 % of control and the T/C [7] is reported as 94 % of control.

With COC1=CCC2=C(CC[C@H]3[C@H]2CCP3(C)=S)C1 (stereo not given in full) the T/C (dose: 50.0 mg/kg/injection, schedule: Q01DX005 (ip), vehicle: saline + Tween-80 + alcohol) was 115 % of control, the T/C (dose: 100.0 mg/kg/injection, schedule: Q01DX005 (ip), vehicle: saline + Tween-80 + alcohol) was 106 % of control and the T/C (dose: 200.0 mg/kg/injection, schedule: Q01DX005 (ip), vehicle: saline + Tween-80 + alcohol) was 101 % of control.

With COCCOC(C)C(=O)C(O)S(=O)(=O)O (stereo not given) the T/C [4] was 109 % of control, the T/C (dose: 100.0 mg/kg/injection, schedule: Q04DX003 (ip), vehicle: saline) was 100 % of control and the T/C (dose: 200.0 mg/kg/injection, schedule: Q04DX003 (ip), vehicle: saline) was 100 % of control. The T/C (dose: 400.0 mg/kg/injection, schedule: Q01DX009 (ip), vehicle: saline) was 154 % of control and the T/C (dose: 400.0 mg/kg/injection, schedule: Q04DX003 (ip), vehicle: saline) was 107 % of control.

In the case of CC12NCCC(CC(=O)N1)C2(C)C (stereo not given), the T/C [8] is reported as 103 % of control, the T/C [9] is reported as 110 % of control and the T/C [10] is reported as 106 % of control.

For COc1ccc(/C=N\NC(=O)C(=O)N/N=C\c2ccc(OC)cc2)cc1, the T/C (dose: 12.5 mg/kg/injection, schedule: Q01DX009 (ip), vehicle: distilled water + alcohol) was 103 % of control, the T/C (dose: 25.0 mg/kg/injection, schedule: Q01DX009 (ip), vehicle: distilled water + alcohol) was 100 % of control and the T/C (dose: 50.0 mg/kg/injection, schedule: Q01DX009 (ip), vehicle: distilled water + alcohol) was 94 % of control. The T/C (dose: 100.0 mg/kg/injection, schedule: Q01DX009 (ip), vehicle: distilled water + alcohol) was 89 % of control and the T/C (dose: 200.0 mg/kg/injection, schedule: Q01DX009 (ip), vehicle: distilled water + alcohol) was 108 % of control.

For C=CCCCCn1c2ccccc2c2c(C)c3cnccc3c(C)c21, the T/C [5] was 100 % of control, the T/C [6] was 115 % of control and the T/C [7] was 115 % of control.

For NC(=O)C[C@H](NP(=S)(c1ccccc1)c1ccccc1)C(=O)O, the T/C [11] was 102 % of control, the T/C [12] was 98 % of control and the T/C [13] was 110 % of control.

O=C(OCc1ccccc1)N1CC=CC1Cc1ccccc1 (stereo not given) was tested, and the T/C (dose: 100.0 mg/kg/injection, schedule: Q01DX001 (ip), vehicle: distilled water + alcohol) was 97 % of control, the T/C (dose: 200.0 mg/kg/injection, schedule: Q01DX001 (ip), vehicle: distilled water + alcohol) was 99 % of control and the T/C (dose: 400.0 mg/kg/injection, schedule: Q01DX001 (ip), vehicle: distilled water + alcohol) was 100 % of control.

In the case of COc1cccc2c1C(=N)c1c(O)c3c(c(O)c1C2=O)CC(O)(C(C)=O)CC3OC1CC(N(Cc2ccccc2)Cc2ccccc2)C(O)C(C)O1 (stereo not given), the T/C (dose: 4.69 mg/kg/injection, schedule: Q04DX003 (ip), vehicle: distilled water + Tween-80) is reported as 101 % of control, the T/C (dose: 9.38 mg/kg/injection, schedule: Q04DX003 (ip), vehicle: distilled water + Tween-80) is reported as 102 % of control and the T/C (dose: 18.75 mg/kg/injection, schedule: Q04DX003 (ip), vehicle: distilled water + Tween-80) is reported as 100 % of control. The T/C (dose: 37.5 mg/kg/injection, schedule: Q04DX003 (ip), vehicle: distilled water + Tween-80) was 96 % of control, the T/C (dose: 75.0 mg/kg/injection, schedule: Q04DX003 (ip), vehicle: distilled water + Tween-80) was 101 % of control and the T/C (dose: 150.0 mg/kg/injection, schedule: Q04DX003 (ip), vehicle: distilled water + Tween-80) was 108 % of control.

For COC1OC(C)C(=O)C2OC12 (stereo not given), the T/C [11] was 112 % of control and the T/C [12] was 116 % of control.

CC1(C)OCC(C2OC(C)(C)OC2C2COC(C)(C)O2)O1 (stereo not given) was tested, and the T/C (dose: 12.5 mg/kg/injection, schedule: Q01DX009 (ip), vehicle: Klucel (hydroxypropylcellulose) (HPC)) was 105 % of control, the T/C [14] was 106 % of control and the T/C [11] was 108 % of control. For the same compound, the T/C [12] was 100 % of control.

In the case of O=C(O)c1c(Cl)c(Cl)c(Cl)c(Cl)c1C(=O)OCC1CCCO1 (stereo not given), the T/C [5] is reported as 90 % of control, the T/C [6] is reported as 106 % of control and the T/C [7] is reported as 101 % of control.

In the case of CC1(c2cccc[n+]2Cc2ccc(Cl)c3ccccc23)OCCO1, the T/C (dose: 12.5 mg/kg/injection, schedule: Q01DX009 (ip), vehicle: saline) is reported as 101 % of control and the T/C (dose: 25.0 mg/kg/injection, schedule: Q01DX009 (ip), vehicle: saline) is reported as 101 % of control.

With CC(=O)CC1(O)C(=O)Nc2ccc(Br)cc21 (stereo not given) the T/C [11] was 100 % of control, the T/C [12] was 108 % of control and the T/C [13] was 92 % of control.

For Cc1ccc(S(=O)(=O)NC(=O)ON2CCCCC2)cc1, the T/C (dose: 50.0 mg/kg/injection, schedule: Q01DX009 (ip), vehicle: saline + Tween-80 + alcohol) was 95 % of control, the T/C (dose: 100.0 mg/kg/injection, schedule: Q01DX009 (ip), vehicle: saline + Tween-80 + alcohol) was 95 % of control and the T/C (dose: 200.0 mg/kg/injection, schedule: Q01DX009 (ip), vehicle: saline + Tween-80 + alcohol) was 92 % of control.

In the case of CCOC(=O)CC1Cc2ccc3ccc(O)cc3c2C1=O (stereo not given), the T/C (dose: 12.5 mg/kg/injection, schedule: Q01DX009 (ip), vehicle: distilled water + Tween-80) is reported as 94 % of control, the T/C (dose: 25.0 mg/kg/injection, schedule: Q01DX009 (ip), vehicle: distilled water + Tween-80) is reported as 95 % of control and the T/C (dose: 50.0 mg/kg/injection, schedule: Q01DX009 (ip), vehicle: distilled water + Tween-80) is reported as 92 % of control. For the same compound, the T/C (dose: 100.0 mg/kg/injection, schedule: Q01DX009 (ip), vehicle: distilled water + Tween-80) was 86 % of control and the T/C (dose: 200.0 mg/kg/injection, schedule: Q01DX009 (ip), vehicle: distilled water + Tween-80) was 92 % of control.

For CN(NC=O)C(=N)N, the T/C (dose: 50.0 mg/kg/injection, schedule: Q01DX001 (ip), vehicle: saline) was 109 % of control, the T/C (dose: 100.0 mg/kg/injection, schedule: Q01DX001 (ip), vehicle: saline) was 100 % of control and the T/C (dose: 200.0 mg/kg/injection, schedule: Q01DX001 (ip), vehicle: saline) was 102 % of control.

CN(C)C12CCCCCC1S(=O)(=O)C2 (stereo not given) was tested, and the T/C [5] was 94 % of control and the T/C [6] was 94 % of control.

CCn1c(=O)[nH]c(=O)c2[nH]c(Cl)nc21 was tested, and the T/C (dose: 16.0 mg/kg/injection, schedule: Q01DX009 (ip), vehicle: Klucel (hydroxypropylcellulose) (HPC)) was 103 % of control, the T/C [14] was 105 % of control and the T/C (dose: 32.0 mg/kg/injection, schedule: Q01DX009 (ip), vehicle: Klucel (hydroxypropylcellulose) (HPC)) was 107 % of control. For the same compound, the T/C [11] was 91 % of control, the T/C (dose: 64.0 mg/kg/injection, schedule: Q01DX009 (ip), vehicle: Klucel (hydroxypropylcellulose) (HPC)) was 102 % of control and the T/C [12] was 93 % of control.

With CCCCC1(C)OC(C)CC(C)O1 (stereo not given) the T/C [8] was 97 % of control, the T/C [9] was 99 % of control and the T/C [10] was 108 % of control.
